Data reported in patent publication US9839642B2, “Beta-tetrazolyl-propionic acids as metallo-beta-lactamase inhibitors” (priority 2014, dated 2017).

Assays:
[1] = tested on: Serratia marcescens expressing IMP-1 (CL5741); experiment: Antibiotic potentiation activity: synergistic concentration (MITC95) with imipenem, growth by OD600; assay type: cell-based; settings: 95% inhibition of bacterial growth, strain CL5741
Method: (§1) Antibiotic Potentiation Activity: Determination of Synergistic Concentration
(§2) The bacterial strains tested included the clinical strains Escherichia coli expressing NDM-1 (CLB30005, CLB30016), Serratia marcescens expressing IMP-1 (CL5741), and Klebsiella pneumoniae expressing VIM-1 (IHMA599644). Inhibitor activity was measured in the presence and absence of imipenem or ceftazidime in a 384-well microplate.
(§3) The clinical strains CLB30016, CL5741, and IHMA599644 were grown on trypticase soy agar containing 5% sheep's blood. The clinical strain CLB30005 was grown on Mueller Hinton broth agar containing 8 μg/ml imipenem. The bacteria on agar plates were incubated overnight at 35° C. with ambient humidity (achieved from an open pan of water inside the incubator). The following day, individual colonies from each clinical strain were picked and resuspended in 5 ml saline to attain an OD600 of 0.14, 0.11, 0.15 and 0.13, for CLB30005, CLB30016, CL5741 and IHMA599644, respectively. These were further diluted 1:100 into 1.1×CAMHB and used to inoculate the test wells as described below.
(§4) Imipenem in 10 mM 3-(N-morpholino)propanesulfonic acid (MOPS, pH 7) was stored in single use aliquots at −80° C. Test inhibitors were dissolved in DMSO and diluted 1:50 in the assay, resulting in a final concentration range of 200 μM to 0.195 μM. On the day of the assay, 4 μl of antibiotic was added to 45 μl of bacteria followed by 1 μl of test compound and mixed by pipetting and with an orbital shaker. The concentration of antibiotic used in the assay was 1 μg/ml or 4 μg/ml. Microplates were covered and incubated at 35° C. for 22 hours to 24 hours. At the end of the incubation, absorbance was determined using a spectrophotometer. The synergistic concentration of MBLI was determined by identifying the lowest concentration of test compound in the presence of a given concentration of antibiotic that was required to inhibit 95% of the growth of the bacteria.
(§5) Representative compounds of the present invention display a synergistic effect. For example, representative compounds of EXAMPLES 1-456 were determined to restore susceptibility to imipenem at concentrations of 200 μM or less.

[2] = tested on: Klebsiella pneumoniae expressing VIM-1 (IHMA599644); experiment: as above; assay type: cell-based; settings: 95% inhibition of bacterial growth, strain IHMA599644
Method: as §1, §2, §3, §4, §5

[3] = tested on: Escherichia coli expressing NDM-1 (CLB30016); experiment: as above; assay type: cell-based; settings: 95% inhibition of bacterial growth, strain CLB30016
Method: as §1, §2, §3, §4, §5

IMP-1 = IMP-1 (Serratia marcescens, UniProt P52699); experiment: Enzyme activity: determination of IC50, fluorescence assay with CCF2-FA substrate; assay type: biochemical; settings: enzyme 2 pM, CCF2-FA 1.25 μM, 2 hours at 25° C.; read-out: IMP1 IC50
Method: (§6) Enzyme Activity: Determination of IC50
(§7) The Class B enzyme activities were measured in the presence of a compound of the EXAMPLES as a test inhibitor in a fluorescence assay against a commercially available substrate consisting of a cephalosporin core linking 7-hydroxycoumarin to fluorescein (CCF2-FA; Life Technologies, Grand Island, N.Y.). The enzyme (NDM-1, IMP-1 or VIM-1) and the substrate were diluted in 100 mM KH2PO4 buffer (pH 7) containing 0.005% Tween-20 and 10 μM ZnSO4. In the assay, the final concentration of enzyme was 1 pM, 2 pM and 30 pM for NDM-1, IMP-1 and VIM-1, respectively, and the final concentration of CCF2-FA was 1.25 μM. The test inhibitor was dissolved in DMSO and diluted 1:50 in the assay, resulting in a final concentration range of 20 μM to 0.00063 μM. In a 384-well microplate, the test inhibitor was incubated with the metallo-β-lactamase enzyme and the substrate for 2 hours at 25° C. Fluorescence at 460 nm following excitation at 405 nm was measured. The IC50 value was determined from semi-logarithmic plots of enzyme inhibition versus inhibitor concentration, with a curve generated using a 4-parameter fit.

VIM-1 = VIM-1 (Pseudomonas aeruginosa, UniProt A0A0F7KYQ8); experiment: as above; assay type: biochemical; settings: enzyme 30 pM, CCF2-FA 1.25 μM, 2 hours at 25° C.; read-out: VIM1 IC50
Method: as §6, §7

NDM-1 = NDM-1 (Klebsiella pneumoniae, UniProt C7C422); experiment: as above; assay type: biochemical; settings: enzyme 1 pM, CCF2-FA 1.25 μM, 2 hours at 25° C.; read-out: NDM1 IC50
Method: as §6, §7

Chain of IMP-1 (P52699 19-246, looked up, species assumed): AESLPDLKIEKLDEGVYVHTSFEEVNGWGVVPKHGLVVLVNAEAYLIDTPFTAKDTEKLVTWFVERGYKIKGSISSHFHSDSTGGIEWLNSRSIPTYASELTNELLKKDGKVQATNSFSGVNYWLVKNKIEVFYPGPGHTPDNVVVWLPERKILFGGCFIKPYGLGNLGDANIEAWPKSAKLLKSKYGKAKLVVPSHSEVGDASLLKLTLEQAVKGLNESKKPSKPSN
Chain of NDM-1 (C7C422 29-270, looked up, species assumed): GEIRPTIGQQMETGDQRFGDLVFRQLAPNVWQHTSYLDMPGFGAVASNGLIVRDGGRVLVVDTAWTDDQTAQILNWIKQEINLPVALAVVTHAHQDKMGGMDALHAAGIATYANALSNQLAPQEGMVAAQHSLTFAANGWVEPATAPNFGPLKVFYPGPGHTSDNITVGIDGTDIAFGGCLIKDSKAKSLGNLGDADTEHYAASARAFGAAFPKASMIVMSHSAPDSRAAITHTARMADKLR

| SMILES | IMP1 SM5741 MITC95 [1] [µM] | VIM1 KP599644 MITC95 [2] [µM] | NDM1 EC30016 MITC95 [3] [µM] | IC50 (IMP-1) [nM] | IC50 (VIM-1) [nM] | IC50 (NDM-1) [nM] |
| --- | --- | --- | --- | --- | --- | --- |
| CC(C)[C@H](C(=O)O)[C@H](Cc1ccc(-c2cn[nH]c2)cc1)c1nnn[nH]1 [Example 62, (2S,3S)-4-(4-(1H-pyrazol-4-yl)phenyl)-2-isopropyl-3-(1H-tetrazol-5-yl)butanoic acid] | 6.2 | 18.8 | 9.4 | 66 | 6.9 | 6.5 |
| O=C(O)[C@@H](C1CCCC1)[C@H](Cc1ccc(-c2cn[nH]c2)cc1)c1nnn[nH]1 [Example 63, (2S,3S)-4-(4-(1H-pyrazol-4-yl)phenyl)-2-cyclopentyl-3-(1H-tetrazol-5-yl)butanoic acid] | 2.0 | 18.8 | 6.2 | 25 | 1.1 | 4.5 |
| CC(C)[C@H](C(=O)O)[C@H](Cc1ccc(C2=CCNC2)nc1)c1nnn[nH]1 [Example 64, (2S,3S)-4-(6-(2,5-dihydro-1H-pyrrol-3-yl)pyridin-3-yl)-2-isopropyl-3-(1H-tetrazol-5-yl)butanoic acid] | 50 | 12.5 | 6.2 | 12000 | 8.4 | 300 |
| CC(C)[C@H](C(=O)O)[C@H](Cc1ccc(C2=CCNC2)cn1)c1nnn[nH]1 [Example 65, (2S,3S)-4-(5-(2,5-dihydro-1H-pyrrol-3-yl)pyridin-2-yl)-2-isopropyl-3-(1H-tetrazol-5-yl)butanoic acid] | 200 | 12.5 | 3.1 | > 20000 | 72 | 760 |
| O=C(O)[C@@H](C1CCCC1)[C@H](Cc1ccc(C2=CCNC2)cn1)c1nnn[nH]1 [Example 66, (2S,3S)-2-cyclopentyl-4-(5-(2,5-dihydro-1H-pyrrol-3-yl)pyridin-2-yl)-3-(1H-tetrazol-5-yl)butanoic acid] | 75 | 12.5 | 4.7 | 6400 | 18 | 370 |
| O=C(O)[C@@H](C1CCOC1)[C@H](Cc1ccc(C2=CCNC2)cc1)c1nnn[nH]1 (stereo partly drawn) [Example 67, (2R,3S)-4-(4-(2,5-dihydro-1H-pyrrol-3-yl)phenyl)-2-(tetrahydrofuran-3-yl)-3-(1H-tetrazol-5-yl)butanoic acid] | 50 | 25 | 12.5 | 12000 | 25 | 890 |
| Cc1cc(C[C@H](c2nnn[nH]2)[C@@H](C(=O)O)C(C)C)ccc1C1=CCNC1 [Example 68, (2S,3S)-4-(4-(2,5-dihydro-1H-pyrrol-3-yl)-3-methylphenyl)-2-isopropyl-3-(1H-tetrazol-5-yl)butanoic acid] | 12.5 | 6.2 | 4.7 | 1100 | 0.79 | 24 |
| CC(C)[C@H](C(=O)O)[C@H](Cc1ccc(C2=CCNC2)c(F)c1)c1nnn[nH]1 [Example 69, (2S,3S)-4-(4-(2,5-dihydro-1H-pyrrol-3-yl)-3-fluorophenyl)-2-isopropyl-3-(1H-tetrazol-5-yl)butanoic acid] | 6.2 | 6.2 | 3.1 | 770 | 1.3 | 25 |
| CC(C)[C@H](C(=O)O)[C@H](Cc1ccccc1C1=CCNC1)c1nnn[nH]1 [Example 70, (2S,3S)-4-(2-(2,5-dihydro-1H-pyrrol-3-yl)phenyl)-2-isopropyl-3-(1H-tetrazol-5-yl)butanoic acid] | >200 | 50 | 12.5 | > 20000 | 240 | 180 |
| Nc1ccc(-c2ccc(C[C@H](c3nnn[nH]3)[C@@H](C(=O)O)C3CCCC3)cc2)cn1 [Example 72, (2S,3S)-4-(4-(6-aminopyridin-3-yl)phenyl)-2-cyclopentyl-3-(1H-tetrazol-5-yl)butanoic acid] | 0.39 | 12.5 | 6.2 | 19 | 3.8 | 5.6 |
| CC(C)[C@H](C(=O)O)[C@H](Cc1ccc(-c2ccc(N)nc2)cc1)c1nnn[nH]1 [Example 73, (2S,3S)-4-(4-(6-aminopyridin-3-yl)phenyl)-2-isopropyl-3-(1H-tetrazol-5-yl)butanoic acid] | 1.2 | 37.5 | 18.8 | 40 | 7.1 | 4.4 |
| CC(C)[C@H](C(=O)O)[C@H](Cc1ccc(-c2ccc(CN)cc2)cc1)c1nnn[nH]1 [Example 74, (2S,3S)-4-(4′-(aminomethyl)-[1,1′-biphenyl]-4-yl)-2-isopropyl-3-(1H-tetrazol-5-yl)butanoic acid] | 1.6 | 12.5 | 3.1 | 110 | 18 | 34 |
| NCc1ccc(-c2ccc(C[C@H](c3nnn[nH]3)[C@@H](C(=O)O)C3CCCC3)cc2)cc1 [Example 75, (2S,3S)-4-(4′-(aminomethyl)-[1,1′-biphenyl]-4-yl)-2-cyclopentyl-3-(1H-tetrazol-5-yl)butanoic acid] | 0.78 | 9.4 | 3.1 | 36 | 4.3 | 25 |
| CC(C)[C@H](C(=O)O)[C@H](Cc1ccc(-c2ccc3c(c2)CNC3)nc1)c1nnn[nH]1 [Example 76, (2S,3S)-4-(6-(isoindolin-5-yl)pyridin-3-yl)-2-isopropyl-3-(1H-tetrazol-5-yl)butanoic acid] | 37.5 | 18.8 | 9.4 | 2600 | 18 | 120 |
| CC(C)[C@H](C(=O)O)[C@H](Cc1ccc(-c2cnc(NCCO)nc2)cc1)c1nnn[nH]1 [Example 77, (2S,3S)-4-(4-(2-((2-hydroxyethyl)amino)pyrimidin-5-yl)phenyl)-2-isopropyl-3-(1H-tetrazol-5-yl)butanoic acid] | 4.7 | 50 | 6.2 | 99 | 5.7 | 6.1 |
| CC(C)[C@H](C(=O)O)[C@H](Cc1ccc(C2CCNC2)cc1)c1nnn[nH]1 (stereo partly drawn) [Example 78, (2S,3S)-2-isopropyl-4-(4-(pyrrolidin-3-yl)phenyl)-3-(1H-tetrazol-5-yl)butanoic acid] | 6.2 | 6.2 | 3.1 | 460 | 4.5 | 23 |
